Patent publication US20260234188A1, “CHEMOKINE-BINDING PEPTIDES” (Oxford University Innovation Limited, priority 2022, published 2026)
Entries after “also recorded” stand apart in the source; their conditions may differ. Ends that are not written are not given here. Peptide text beside a SMILES is read from it.

Assays:
[1] = system: panel of 24 biotinylated chemokines; assay: Phage-display screen of HD2 NNK saturation mutagenesis library; format: binding, human; conditions: for Chemokines Bound log2E 1-5 / Chemokines Bound log2E > 5: HD2 saturation mutants, chemokines on streptavidin beads, UniProt entry names
CXCL5 = molecular target: T1, CXCL5 (Homo sapiens, UniProt P42830); assay: CXCL5-induced cell migration assay; format: cell-based; conditions: HD2 mutant peptides 10 μM, chemokine at EC80
T1 sequence (P42830 37-114): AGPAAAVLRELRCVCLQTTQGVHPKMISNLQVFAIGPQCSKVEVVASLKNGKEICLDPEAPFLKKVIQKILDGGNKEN
Method: FIGS. 24 and 25. Effect of exemplar mutant HD2 peptides on chemotaxis. Box-whisker plots showing the effect of the exemplar mutant HD2 peptides on cell migration induced by indicated human chemokines. All experiments were performed as at least three technical and between one to three biological replicates, and individual data points are indicated. […] Chemokine and cell type names are indicated. HD2SCR is a scrambled version of HD2 used as negative control. All peptides were at 10 μM final concentration and chemokines at EC80 doses. Statistically significant differences (compared to control, coloured blue), using Dunnett's test with correction for multiple comparisons, are indicated by asterisks: ****=P≤0.0001, ***=P≤0.001, **=P≤0.01, *=P≤0.05.
The J:CXCR1 cell line was generated by transfecting Jurkat cells by electroporation with PvuI-linearized plasmid D1398 and selecting with blasticidin (Sigma-Aldrich, Cat #203350, […]). […] J:CXCR1 cells were cultured in RPMI-1640 media (Gibco), supplemented with 10% FBS and 5 mM L-Glutamine with blasticidin. For J:CXCR1 migration assays, 300,000 cells/well were added to the top chamber of a 3 μm Transwell insert (Corning) in 50 μL of migration media (RPMI-1640, 0.5% FBS, 4 mM L-Glutamine, 0.05% DMSO). […] Cell counts were determined by Attune NxT Flow Cytometer Plate Reader (ThermoFisher), based on cell size parameters FSC-H/SSC-H. Experiments were performed in 3 technical and 3 biological replicates. […] Statistical significances between control experimental groups was evaluated using Dunnett's test. […] EC80 was calculated by fitting a chemokine dose-response curve with 3 parameters (fixing the top to 100%). IC50 was calculated by fitting an inhibitor response curve with 4 parameters.
Migration assays using THP1, activated T-cell (ATC) and J:CXCR1 (Jurkat cells stably transfected with CXCR1 receptor) were performed as described previously. […] EC80 was calculated by fitting a chemokine dose-response curve with 3 parameters (fixing the top to 100%). IC50 was calculated by fitting an inhibitor response curve with 4 parameters. […]

Row | Compound | Chemokines Bound log2E 1-5 [1] | Chemokines Bound log2E > 5 [1] | peak log 2 E ([1]; best mutation at each residue) | chemotaxis compared with the parental HD2 peptide (CXCL5) | mean log 2 E compared to parental HD2 ([1]; over XC (CXC/CX3C) chemokines) | mean log 2 E compared to parental HD2 ([1]; over all chemokines)
1 | CC(C)C[C@H](NC(=O)[C@@H]1CCCN1C(=O)[C@H](C)NC(=O)[C@H](Cc1ccc(O)cc1)NC(=O)[C@H](C)NC(=O)[C@@H](NC(=O)[C@H](Cc1ccc(O)cc1)NC(=O)[C@H](CC(=O)O)NC(=O)[C@H](CC(=O)O)NC(=O)[C@H](CCC(=O)O)NC(=O)[C@@H](N)CCC(=O)O)[C@@H](C)O)C(=O)N[C@H](C(=O)N[C@@H](CS)C(=O)N[C@@H](Cc1ccc(O)cc1)C(=O)N[C@@H](Cc1ccccc1)C(=O)N[C@@H](CS)C(N)=O)[C@@H](C)O [HD2_C16, EEDDYTAYAPLTCYFC] (H-EEDDYTAYAPLTCYFC-NH2; N-terminus assumed) | CCL1, X3CL1, CXL10, CXL11,; also recorded: CXL14 | IL8 | highest peak log 2 E at that residue | significant reduction in chemotaxis | – | –
2 | EEDDWTAYAPLTCYFT-NH2 [HD2_W5, EEDDWTAYAPLTCYFT] | CCL1, CCL11, CCL15, CCL17,; also recorded: CCL18, CCL19, CCL2, CCL22,; also recorded: CCL28, CCL3, CCL4, X3CL1,; also recorded: CXL11, SDF1, IL8 | CXL10, CXL13 | – | – | significant improvement | significant improvement
3 | EEDDYTAYWPLTCYFT [A9W] | – | – | – | significant reduction in chemotaxis | – | –
4 | EEDDYWAYAPLTCYFT [HD2_W6] | CCL1, CCL17, CCL18, CCL2,; also recorded: CCL20, CCL3, CCL4, IL8 | CCL19, CCL25,; also recorded: CCL28, X3CL1,; also recorded: CXL10, CXL11,; also recorded: SDF1, CXL13,; also recorded: CXL14 | – | significant reduction in chemotaxis | significant improvement | –
